Experimental data published in US20030113784A1, “Regulated expression of recombinant DNA” (priority 2001, published 2003).

System: β-galactosidase expression in C2C12 myoblasts cotransfected with Op8iME and Lac-R
Test: Time course of IPTG induction of β-galactosidase expression (chemiluminescent assay of cell lysates)
Type: cell-based
Details: 5 mM IPTG added sixteen hours post-transfection
Protocol: The time course of IPTG induction of β-galactosidase expression in one of the muscle enhancer and SV40 intron containing constructs was determined. The kinetics of Op8iME induction in C2C12 myoblasts were plotted over the course of 48 hours. Op8iME and the Lac-R were transiently cotransfected into C2C12 myoblasts. Sixteen hours post-transfection, 5 mM IPTG was added. β-galactosidase expression was monitored in cell lysates by chemiluminescent assay (Promega) at a selection of time-points from 1 h to 48 h. IPTG-dependent induction of β-galactosidase began at 4h and increased over time, with a maximum peak at 24 h (FIG. 11).

CC(C)S[C@@H]1O[C@H](CO)[C@H](O)[C@H](O)[C@H]1O [IPTG, isopropylthiogalactoside]
time of maximum peak of IPTG-dependent induction of β-galactosidase: 24 h
start of IPTG-dependent induction of β-galactosidase (time-points 1 h to 48 h): 4 h
